Test results published in patent US12370181B2, “Regimens of estrogen receptor antagonists” (Olema Pharmaceuticals, Inc., priority 2019, dated 2025).

How the values were obtained:
[1] = system: ligand-independent ER mutants; experiment: AP activity in Ishikawa cells transiently transfected with ER variants; assay type: cell-based, human; settings: in the absence of E2; 3 days; FIGS. 5A-5F, 8A-8D
Method: (§1) The present Example describes studies in which certain estrogen receptor constructs were transfected into Ishikawa cells, which are a human endometrial cancer cell line, endogenous alkaline phosphatase is assayed. 15,000 Ishikawa cells per well were plated into a 96-well plate in […] containing 5% stripped FBS. At the time of plating, cells in each well were transiently transfected with 75-100 ng of an estrogen receptor construct (or empty vector, pSG5) using Lipofectamine LTX (ThermoFisher Scientific). Approximately 4 hours later, cells were treated with indicated amount of anti-estrogen (in the absence of E2), or 500 pM E2 (FIG. 9), and media was diluted to 2.5% stripped FBS. Cells were incubated for 3 days, media removed, and plates frozen at −80° C. […] After 40-80 minutes at 40° C., absorbance was read at 405 nm.

endogenous wild type ER = biological target: T1, endogenous wild type ER (Homo sapiens, UniProt P03372); experiment: Alkaline phosphatase (AP) activity of endogenous wild type ER in un-transfected Ishikawa cells, agonist and antagonist mode; assay type: cell-based
T1 construct: AP activity of endogenous wild type ER in un-transfected Ishikawa cells; endogenous in cells; host or cells: Ishikawa cells (un-transfected)
T1 sequence (P03372 1-595): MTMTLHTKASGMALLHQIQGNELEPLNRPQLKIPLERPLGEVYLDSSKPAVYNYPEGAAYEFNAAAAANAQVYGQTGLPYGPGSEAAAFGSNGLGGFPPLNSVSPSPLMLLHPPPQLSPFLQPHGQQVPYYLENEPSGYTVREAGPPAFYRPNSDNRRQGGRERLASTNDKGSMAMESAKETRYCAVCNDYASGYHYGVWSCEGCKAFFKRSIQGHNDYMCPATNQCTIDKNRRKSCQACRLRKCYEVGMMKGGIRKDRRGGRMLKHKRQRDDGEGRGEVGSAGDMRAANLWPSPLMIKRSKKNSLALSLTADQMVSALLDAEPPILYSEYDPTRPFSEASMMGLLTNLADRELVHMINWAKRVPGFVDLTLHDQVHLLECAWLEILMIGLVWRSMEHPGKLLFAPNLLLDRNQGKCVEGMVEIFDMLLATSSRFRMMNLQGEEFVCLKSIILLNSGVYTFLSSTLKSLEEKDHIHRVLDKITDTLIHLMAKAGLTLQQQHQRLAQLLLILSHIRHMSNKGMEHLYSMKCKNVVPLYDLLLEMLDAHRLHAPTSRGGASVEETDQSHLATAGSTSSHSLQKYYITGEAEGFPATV
Method: as §1
AP activity of endogenous wild type ER in un-transfected Ishikawa cells was assayed as described above.

[2] = in vivo, po, 300 mg/kg

Compound: CCNCCc1ccc(CN(CC)c2cc(OC)ccc2[C@@H]2CCc3cc(O)ccc3C2)cc1 [RAD-1901, Elacestrant]
- Inhibition of activity of ligand-independent ER mutants (AP activity) [1]: none of Endoxifen, RAD-1901, ARN-810 (GDC-0810) or AZD-9496 can inhibit activity of the ligand-independent ER variants

Compound: C[C@@H]1Cc2c([nH]c3ccccc23)[C@@H](c2c(F)cc(/C=C/C(=O)O)cc2F)N1CC(C)(C)F [AZD-9496]
- Agonist activity (ER activity, AP) (endogenous wild type ER; agonist mode: compound alone, no added estrogen, FIG. 1A): increases ER activity in the absence of added estrogen
- Antagonist activity (ER activity, AP) (endogenous wild type ER; antagonist mode: in the presence of 500 pM 17β-estradiol (E2), FIG. 1B): reducing ER activity when estrogen is there
- Inhibition of activity of ligand-independent ER mutants (AP activity) [1]: none of Endoxifen, RAD-1901, ARN-810 (GDC-0810) or AZD-9496 can inhibit activity of the ligand-independent ER variants

Compound: CC/C(=C(/c1ccc(/C=C/C(=O)O)cc1)c1ccc2[nH]ncc2c1)c1ccc(F)cc1Cl [ARN-810, Brilanestrant]
- Inhibition of activity of ligand-independent ER mutants (AP activity) [1]: none of Endoxifen, RAD-1901, ARN-810 (GDC-0810) or AZD-9496 can inhibit activity of the ligand-independent ER variants

Compound: C[C@]12CC[C@@H]3c4ccc(O)cc4C[C@@H](CCCCCCCCC[S+]([O-])CCCC(F)(F)C(F)(F)F)[C@H]3[C@@H]1CC[C@@H]2O (stereo partly drawn) [Fulvestrant]
- Blood brain barrier penetration [2]: unable to penetrate the blood-brain barrier in analogous quantities
